ChEMBL document CHEMBL1268836, “Rational design of novel pyrrolidine derivatives as orally active neurokinin-3 receptor antagonists” (Bioorg Med Chem Lett, 2010)
≈ marks a conversion by molar mass, not a printed value. Values belong to the compound of their own block, whether it stands above or below them. Calls of active or inactive are those of the source. No cut-off for these calls is given here.

Key:
[1] = Aqueous solubility of the compound; type: physicochemical
Gerbillinae [2] = experiment: Antipsychotic activity gerbils assessed as reversal of senktide-induced locomotor activity at 30 mg/kg, po administered before senktide challenge; type: functional, organism-based; set-up: dose 30 mg/kg
[3] = Ratio of drug level in brain to plasma in gerbils at 30 mg/kg, po; type: ADME, organism-based; set-up: dose 30 mg/kg, route oral; details: gerbillinae, read-out: BPR
[4] = Lipophilicity, log D of the compound; type: physicochemical; details: octanol/water
Gerbillinae [5] = experiment: Antipsychotic activity gerbils assessed as reversal of senktide-induced locomotor activity at 100 mg/kg, po administered before senktide challenge; type: functional, organism-based; set-up: dose 100 mg/kg
Neuromedin-K receptor = target: T1, Neuromedin-K receptor (Homo sapiens, UniProt P29371); experiment: Displacement of [3H]SR142801 from human neurokinin NK3 receptor expressed in HEK293-EBNA cells; type: cell-based
T1 sequence (P29371 whole entry): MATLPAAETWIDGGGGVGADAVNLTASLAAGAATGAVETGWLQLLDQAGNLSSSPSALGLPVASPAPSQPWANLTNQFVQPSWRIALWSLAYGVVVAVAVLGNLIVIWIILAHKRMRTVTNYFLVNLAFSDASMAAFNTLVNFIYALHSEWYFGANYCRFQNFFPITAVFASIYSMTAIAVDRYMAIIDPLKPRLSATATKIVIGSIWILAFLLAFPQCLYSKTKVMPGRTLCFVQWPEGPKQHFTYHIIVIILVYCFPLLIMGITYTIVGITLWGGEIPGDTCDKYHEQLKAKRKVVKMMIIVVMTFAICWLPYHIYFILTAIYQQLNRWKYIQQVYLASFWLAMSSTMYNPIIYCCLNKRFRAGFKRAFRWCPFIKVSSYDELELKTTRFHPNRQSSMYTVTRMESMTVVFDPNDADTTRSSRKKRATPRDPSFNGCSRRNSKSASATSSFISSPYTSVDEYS

Substance-P receptor = Substance-P receptor (Homo sapiens, UniProt P25103); experiment: Displacement of [3H]substance P from human neurokinin NK1 receptor expressed in CHO cell; type: cell-based
Substance-P receptor, sequence (P25103 whole entry): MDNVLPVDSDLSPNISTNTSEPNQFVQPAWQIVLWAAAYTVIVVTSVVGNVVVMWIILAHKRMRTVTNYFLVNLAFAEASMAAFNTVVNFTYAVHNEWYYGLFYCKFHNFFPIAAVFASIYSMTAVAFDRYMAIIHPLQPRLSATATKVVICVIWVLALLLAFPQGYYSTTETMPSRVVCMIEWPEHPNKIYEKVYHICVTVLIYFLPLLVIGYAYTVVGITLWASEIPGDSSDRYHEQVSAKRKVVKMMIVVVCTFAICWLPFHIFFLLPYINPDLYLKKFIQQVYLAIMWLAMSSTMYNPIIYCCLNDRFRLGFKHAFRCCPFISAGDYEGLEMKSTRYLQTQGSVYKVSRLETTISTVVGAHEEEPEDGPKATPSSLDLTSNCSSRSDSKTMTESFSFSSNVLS

Compound: CN(C)CCN1CCN(C(=O)N2C[C@H](c3ccc(Cl)c(Cl)c3)[C@@H](N(C)Cc3ccc(C(F)(F)F)c(F)c3)C2)CC1
solubility [1]: 495 µg/mL (≈ 819 µM)
Activity (Gerbillinae [2]): Active
Kp [3]: 1.6
logD [4]: 2.9

Compound: CC(=O)N(C)C1(c2ccccc2)CCN(CCC[C@]2(c3ccc(Cl)c(Cl)c3)CCCN(C(=O)c3ccccc3)C2)CC1
Activity (Gerbillinae [5]): Active

Compound: CN(C(=O)C(C)(C)c1cc(C(F)(F)F)cc(C(F)(F)F)c1)[C@H]1CN(C(=O)N(CCO)CCO)C[C@@H]1c1ccc(F)cc1 (racemic)
Ki (Neuromedin-K receptor; read-out: Ki): 192 nM
Ki (Substance-P receptor): 1.1 nM

Compound: CC(=O)N1CCN(C(=O)N2C[C@H](c3ccc(F)cc3)[C@@H](N(C)C(=O)C(C)(C)c3cc(C(F)(F)F)cc(C(F)(F)F)c3)C2)CC1 (racemic)
Ki (Neuromedin-K receptor; read-out: Ki): 370 nM
Ki (Substance-P receptor): 1.4 nM

Compound: CN(C(=O)C(C)(C)c1cc(C(F)(F)F)cc(C(F)(F)F)c1)[C@H]1CN(C(=O)N2CCN(S(C)(=O)=O)CC2)C[C@@H]1c1ccc(F)cc1 (racemic)
Ki (Neuromedin-K receptor; read-out: Ki): 165 nM
Ki (Substance-P receptor): 2.1 nM

Compound: CN(C(=O)C(C)(C)c1cc(C(F)(F)F)cc(C(F)(F)F)c1)[C@H]1CNC[C@@H]1c1ccc(F)cc1 (racemic)
Ki (Neuromedin-K receptor; hek293-ebna): Not Active
Ki (Substance-P receptor): 0.9 nM

Compound: CN(C(=O)C(C)(C)c1cc(C(F)(F)F)cc(C(F)(F)F)c1)[C@H]1CN(C(=O)NCCO)C[C@@H]1c1ccc(F)cc1 (racemic)
Ki (Neuromedin-K receptor; read-out: Ki): 298 nM
Ki (Substance-P receptor): 0.6 nM

Compound: CN(C(=O)C(C)(C)c1cc(C(F)(F)F)cc(C(F)(F)F)c1)[C@H]1CN(Cc2ccccc2)C[C@@H]1c1ccc(F)cc1 (racemic)
Ki (Neuromedin-K receptor; hek293-ebna): Not Active

Compound: CS(=O)(=O)N1CCN(C(=O)N2C[C@H](NC(=O)c3cc(C(F)(F)F)cc(C(F)(F)F)c3)[C@@H](c3ccccc3)C2)CC1 (racemic)
Ki (Neuromedin-K receptor; hek293-ebna): Not Active

Compound: CN(Cc1ccc(C(F)(F)F)c(F)c1)[C@H]1CN(C(=O)N2CCN(S(C)(=O)=O)CC2)C[C@@H]1c1ccc(Cl)c(Cl)c1 (racemic)
solubility [1]: < 1 µg/mL
logD [4]: > 4

Continued, values first:

Ki (Neuromedin-K receptor; read-out: Ki): 100 nM
Compound: CN(C(=O)C(C)(C)c1cc(C(F)(F)F)cc(C(F)(F)F)c1)[C@H]1CN(C(=O)N2CCN(S(C)(=O)=O)CC2)C[C@@H]1c1ccccc1 (racemic)

Ki (Neuromedin-K receptor; hek293-ebna): Not Active
Compound: CN(C(=O)Cc1cc(C(F)(F)F)cc(C(F)(F)F)c1)[C@H]1CN(C(=O)N2CCN(S(C)(=O)=O)CC2)C[C@@H]1c1ccccc1 (racemic)

Ki (Neuromedin-K receptor; hek293-ebna): Not Active
Compound: CN(CC(C)(C)c1cc(C(F)(F)F)cc(C(F)(F)F)c1)[C@H]1CN(C(=O)N2CCN(S(C)(=O)=O)CC2)C[C@@H]1c1ccccc1 (racemic)

Ki (Neuromedin-K receptor; hek293-ebna): Not Active
Compound: CN(CCc1cc(C(F)(F)F)cc(C(F)(F)F)c1)[C@H]1CN(C(=O)N2CCN(S(C)(=O)=O)CC2)C[C@@H]1c1ccccc1 (racemic)

Ki (Neuromedin-K receptor; hek293-ebna): Not Active
Compound: CN(C(=O)c1cc(C(F)(F)F)cc(C(F)(F)F)c1)[C@H]1CN(C(=O)N2CCN(S(C)(=O)=O)CC2)C[C@@H]1c1ccccc1 (racemic)

Ki (Neuromedin-K receptor; read-out: Ki): 1300 nM
Compound: CN(Cc1cc(C(F)(F)F)cc(C(F)(F)F)c1)[C@H]1CN(C(=O)N2CCN(S(C)(=O)=O)CC2)C[C@@H]1c1ccccc1 (racemic)
